Patent US20210236512A1 (ZARODEX THERAPEUTICS LIMITED, priority 2018, published 2021)

How the values were obtained:
[1] = test system: collagen-induced arthritis (CIA); test: Mouse collagen-induced arthritis (CIA) model: onset, clinical score and paw-swelling; assay type: in vivo, DBA/1 mice
Source text: Adult (age 13-15 weeks) DBA/1 male mice were purchased from Envigo (Horst, Netherlands). […] 1. […] All experiments were approved by the Clinical Medicine Animal Welfare and Ethical Review Body (AWERB) and by the UK Home Office. DBA/1 mice were immunised with bovine type II collagen in CFA and monitored daily for onset of arthritis. […] Controls received vehicle (saline) alone. Treatment of mice commenced in one experiment on day 1 after immunisation and in a second experiment on day 15 after immunisation. Clinical scores and paw-swelling were monitored for 10 days following onset of arthritis. A clinical scoring system was used as follows. Arthritis severity was scored by an experienced, non-blinded investigator as follows: 0=normal, 1=slight swelling and/or erythema, 2=pronounced swelling, 3=ankylosis. […] Data were analyzed by one-way ANOVA with Tukey's or Dunnett's multiple comparison test or two-way ANOVA with Tukey's multiple comparison test as appropriate. All calculations were made using GraphPad Prism software.

[2] = test system: circulating B cell subsets; test: Second observational study (interim analysis): circulating B cell subsets by FACS; assay type: in vivo, human
[3] = First observational study: infection questionnaire, antibiotic courses and hospital admission rates; assay type: in vivo, human
[4] = test system: serum/plasma IgG, IgA, IgM; settings: cited from earlier work
[5] = test system: B cell subsets and T cells in spleen; test: Wild type mouse study: spleen immunophenotyping by flow cytometry
[6] = test system: T follicular helper cells and T regulatory cells; test: Mouse CIA model: T follicular helper and T regulatory cells in spleen and lymph node by flow cytometry; assay type: in vivo, DBA/1 mice
[7] = test system: circulating total IgG, IgA and IgM; test: Second observational study (interim analysis): circulating immunoglobulins and pneumococcal-specific IgG; assay type: in vivo, human
[8] = clozapine treatment for six weeks (Hinze-Selch et al., 1998)

SMILES: CN1CCN(C2=Nc3cc(Cl)ccc3Nc3ccccc32)CC1 [Clozapine, clozapine]
- Swelling of the first affected paw ([1]; 10 mg/kg from day 1): reduced
- Onset of arthritis post-immunisation ([1]; 5 or 10 mg/kg IP daily from day 1 or day 15): significantly effective in delaying the onset of arthritis
- Arthritis onset, treatment from day 1 ([1]; both doses (5, 10 mg/kg) from day 1): extremely effective in delaying arthritis onset
- Overall clinical score ([1]; both doses, administered on day 1): reduced
- Incidence of CIA ([1]; most apparent when dosed just after CII immunisation, FIG. 26): reduces the incidence
- Total number of affected paws compared to vehicle control ([1]; significant with dosing at D1): reduced
- Overall CD19+ B cell numbers vs control ([2]; FIG. 8A-B): not significantly different
- Naive (CD19+ CD27-) B cells as a proportion of total CD19+ B cells ([2]; FIG. 9A-C): Small increase
- Overall memory B cell pool or IgMhi IgDlo memory B cell subpopulation ([2]; FIG. 10A-C, 12A-C): without perturbation
- Circulating levels of transitional B cells or marginal zone B cells ([2]; FIG. 13A-C, 14A-C): No significant difference
- Class-switched memory B cells (CD27+ IgM- IgD- as % B) ([2]; P=0.06 vs control, FIG. 11A-C): Strong trends to a specific reduction
- Levels of plasmablasts ([2]; P=0.07 vs control clozapine naive, FIG. 15A-C): Strong trends to reduction
- Admitted to hospital with infection ([3]; clozapine group (vs 0.06 in controls)): 0.12 per patient year
- Admission frequency in 12-month period, all cause: patients admitted ([3]; clozapine-treated patients): 14 patients
- Admission frequency in 12-month period, infection-related: admissions ([3]; clozapine-treated patients): 15
- Admission frequency in 12-month period, infection-related: patients admitted ([3]; clozapine-treated patients): 10 patients
- Antibiotic courses per year: 1-5 courses, percentage of patients ([3]; clozapine-treated patients): 33.0%
- Antibiotic courses per year: >5 courses, percentage of patients ([3]; clozapine-treated patients): 5.3%
- Antibiotic courses per year: nil courses, percentage of patients ([3]; clozapine-treated patients): 61.7%
- Antibiotic courses per year: >5 courses, percentage of patients ([3]; clozapine-treated patients, listed as clozapine): 5.3%
- IgA, IgG, absolute neutrophil count and white blood cell count vs control group ([4]; Lozano et al., 2016): no differences
- IgA or IgM concentrations or pattern of autoantibodies [4, 8]: no significant effect
- Serum concentrations of IgG [4, 8]: significant increases
- Mean plasma levels of IgM vs control group ([4]; outpatients on clozapine for at least five years (Lozano et al., 2016)): overall decrease
- Other splenic cell populations (B220-TCR-b-) ([5]; 5 mg/kg and 10 mg/kg): No effect
- Percentage of splenic T cells ([5]; 5 mg/kg and 10 mg/kg): reciprocal increase
- Percentage of splenic B cells (B220+TCR-b-) as a proportion of total live splenocytes ([5]; 5 mg/kg and 10 mg/kg IP, 21 days): significantly lower
- Proportion of T2 B cells in the spleen ([5]; across all doses of clozapine): small increase
- Activated T cells (B220+TCR-b+) in spleen vs control ([5]; clozapine 2.5-10 mg/kg): reduced in dose-dependent fashion
- Splenic follicular or marginal zone B cell subsets ([5]; clozapine IP, 21 days): no specific reductions
- Proportion of transitional stage 1 (T1) B cells in the spleen ([5]; including at the 2.5 mg/kg dose): mildly reduced
- Germinal centre cells in the spleen vs control or haloperidol ([5]; steady state): no differences
- Proportions of CD4+PD1+CXCR5+ T follicular helper cells in lymph node or spleen ([6]; 5 or 10 mg/kg from day 1 or day 15): did not significantly affect
- Expression of PD-1 (MFI) in lymph node T follicular helper cells ([6]; all doses and time points): Reduced expression
- Expression of CD25 on Tregs ([6]; dosed from day 1): significantly upregulate
- Foxp3 expression on Tregs ([6]; dosed from day 1): not alter
- CXCR5 expression (MFI) on T follicular helper cells ([6]; dosed from day 1, lymph node and spleen): significant reductions
- Proportion of CD4+CD25+Foxp3+ T regulatory cells (Tregs) ([6]; higher dose tested, from day 1, lymph node and spleen): increase the proportion
- Expression of CCR7 on T follicular helper cells ([6]; lymph node and spleen): reduced expression
- Levels of circulating total IgG, IgA and IgM vs clozapine naive ([7]; FIG. 6A-C): Significantly reduced
- IgG antibodies against pneumococcus vs clozapine naive ([7]; FIG. 7): trend to lower
